Experimental data reported in ChEMBL document CHEMBL5506073, “Discovery of Novel Ortho-Aminophenol Derivatives Targeting Lipid Peroxidation with Potent Antiferroptotic Activities” (J Med Chem, 2024).
Active and inactive are the calls of the source. The rule behind the calls is not given here.

What was measured:
[1] = system: Mus musculus; assay: Protection against APAP-induced acute liver injury in overnight fasted C57BL/6 mouse model assessed as decrease in plasma AST level at 10 mg/kg, ip administered 1 hr prior to APAP treatment measured after 12 hrs post-APAP treatment under continuous fasting condition; assay type: functional, organism-based; details: time 13.0 hrs
[2] = system: Mus musculus; assay: Protection against APAP-induced acute liver injury in overnight fasted C57BL/6 mouse model assessed as decrease in plasma ALT level at 10 mg/kg, ip administered 1 hr prior to APAP treatment measured after 12 hrs post-APAP treatment under continuous fasting condition; assay type: functional, organism-based; details: time 13.0 hrs
[3] = system: Mus musculus; assay: Protection against APAP-induced acute liver injury in overnight fasted C57BL/6 mouse model assessed as reduction in 4-HNE formation in liver at 10 mg/kg, ip administered 1 hr prior to APAP treatment measured after 12 hrs post-APAP treatment under continuous fasting condition by IHC analysis; assay type: functional, organism-based; details: time 13.0 hrs
[4] = system: HT-1080; assay: Inhibition of RSL3-induced ferroptosis in human HT-1080 cells assessed as cell viability incubated for 24 hrs by CCK8 assay; assay type: functional, cell-based; details: for EC50: HT-1080, 24 h
[5] = system: HT-1080; assay: Inhibition of RSL3-induced ferroptosis in human HT-1080 cells assessed as cell viability at 200 nM incubated for 24 hrs by CCK8 assay; assay type: functional, cell-based
[6] = system: HKC; assay: Inhibition of RSL3-induced ferroptosis in human HKC cells assessed as cell viability at 200 nM incubated for 24 hrs by CCK8 assay; assay type: functional, cell-based
[7] = system: HK-2; assay: Inhibition of RSL3-induced ferroptosis in human HK-2 cells assessed as cell viability at 200 nM incubated for 24 hrs by CCK8 assay; assay type: functional, cell-based
[8] = system: KHOS/NP; assay: Inhibition of RSL3-induced ferroptosis in human KHOS/NP cells assessed as cell viability at 200 nM incubated for 24 hrs by CCK8 assay; assay type: functional, cell-based
[9] = system: SW480; assay: Inhibition of RSL3-induced ferroptosis in human SW480 cells assessed as cell viability at 200 nM incubated for 24 hrs by CCK8 assay; assay type: functional, cell-based
[10] = system: HTR-8/SVneo; assay: Inhibition of RSL3-induced ferroptosis in human HTR-8/SVneo cells assessed as cell viability at 200 nM incubated for 24 hrs by CCK8 assay; assay type: functional, cell-based
[11] = system: HT-1080; assay: Inhibition of FIN56-induced ferroptosis in human HT-1080 cells assessed as cell viability at 200 nM incubated for 24 hrs by CCK8 assay; assay type: functional, cell-based
[12] = system: HKC; assay: Inhibition of FIN56-induced ferroptosis in human HKC cells assessed as cell viability at 200 nM incubated for 24 hrs by CCK8 assay; assay type: functional, cell-based
[13] = system: HK-2; assay: Inhibition of FIN56-induced ferroptosis in human HK-2 cells assessed as cell viability at 200 nM incubated for 24 hrs by CCK8 assay; assay type: functional, cell-based
[14] = system: KHOS/NP; assay: Inhibition of FIN56-induced ferroptosis in human KHOS/NP cells assessed as cell viability at 200 nM incubated for 24 hrs by CCK8 assay; assay type: functional, cell-based
[15] = system: SW480; assay: Inhibition of FIN56-induced ferroptosis in human SW480 cells assessed as cell viability at 200 nM incubated for 24 hrs by CCK8 assay; assay type: functional, cell-based
[16] = system: HTR-8/SVneo; assay: Inhibition of FIN56-induced ferroptosis in human HTR-8/SVneo cells assessed as cell viability at 200 nM incubated for 24 hrs by CCK8 assay; assay type: functional, cell-based
[17] = system: HT-1080; assay: Inhibition of ferroptosis in human HT-1080 cells assessed as reversal of RSL3-induced cell shrinkage; assay type: functional, cell-based
[18] = system: HT-1080; assay: Inhibition of ferroptosis in human HT-1080 cells assessed as reversal of RSL3-induced swelling; assay type: functional, cell-based
[19] = system: HT-1080; assay: Inhibition of ferroptosis in human HT-1080 cells assessed as reversal of RSL3-induced membrane rupture; assay type: functional, cell-based
[20] = system: HT-1080; assay: Inhibition of ferroptosis in human HT-1080 cells assessed as reversal of RSL3-induced normal morphological loss; assay type: functional, cell-based
[21] = system: HT-1080; assay: Inhibition of RSL3-induced lipid peroxidation in human HT-1080 cells assessed as reduction in green fluorescence by C11-BODIPY581/591 probe based analysis; assay type: functional, cell-based
[22] = system: HT-1080; assay: Inhibition of RSL3-induced lipid peroxidation in human HT-1080 cells assessed as reduction in MDA adduct accumulation by ELISA; assay type: functional, cell-based
[23] = system: HT-1080; assay: Effect on lipid metabolism in human HT-1080 cells assessed as change in ACSL4 mRNA level by qRT-PCR analysis; assay type: functional, cell-based
[24] = system: HT-1080; assay: Effect on lipid metabolism in human HT-1080 cells assessed as change in ALOX15 mRNA level by qRT-PCR analysis; assay type: functional, cell-based
[25] = system: HT-1080; assay: Effect on lipid metabolism in human HT-1080 cells assessed as change in COX2 mRNA level by qRT-PCR analysis; assay type: functional, cell-based
[26] = system: HT-1080; assay: Effect on glutathione metabolic pathway in human HT-1080 cells assessed as change in GPX4 mRNA level by qRT-PCR analysis; assay type: functional, cell-based
[27] = system: HT-1080; assay: Effect on glutathione metabolic pathway in human HT-1080 cells assessed as change in SLC7A11 mRNA level by qRT-PCR analysis; assay type: functional, cell-based
[28] = system: HT-1080; assay: Effect on iron metabolism in human HT-1080 cells assessed as change in DMT1 mRNA level by qRT-PCR analysis; assay type: functional, cell-based
[29] = system: HT-1080; assay: Effect on iron metabolism in human HT-1080 cells assessed as change in TFRC mRNA level by qRT-PCR analysis; assay type: functional, cell-based
[30] = system: HT-1080; assay: Effect on iron metabolism in human HT-1080 cells assessed as change in FTH1 mRNA level by qRT-PCR analysis; assay type: functional, cell-based
[31] = Antioxidant activity assessed as DPPH radical scavenging activity at 20 uM incubated for 30 mins by absorbance based assay; assay type: functional
[32] = system: Mus musculus; assay: Protection against kidney ischemia-reperfusion injury in C57BL/6 mouse model assessed as decrease in serum creatinine level at 10 mg/kg, ip administered twice 1 hr prior to ischemia onset measured after 24 hrs post-ischemia; assay type: functional, organism-based; details: time 25.0 hrs
[33] = system: Mus musculus; assay: Protection against kidney ischemia-reperfusion injury in C57BL/6 mouse model assessed as decrease in BUN level at 10 mg/kg, ip administered twice 1 hr prior to ischemia onset measured after 24 hrs post-ischemia; assay type: functional, organism-based; details: time 25.0 hrs
[34] = system: Mus musculus; assay: Protection against kidney ischemia-reperfusion injury in C57BL/6 mouse model assessed as decrease in renal tubule dilation at 10 mg/kg, ip administered twice 1 hr prior to ischemia onset measured after 24 hrs post-ischemia by H and E staining based analysis; assay type: functional, organism-based; details: time 25.0 hrs
[35] = system: Mus musculus; assay: Protection against kidney ischemia-reperfusion injury in C57BL/6 mouse model assessed as decrease in brush edges loss in kidney at 10 mg/kg, ip administered twice 1 hr prior to ischemia onset measured after 24 hrs post-ischemia by H and E staining based analysis; assay type: functional, organism-based; details: time 25.0 hrs
[36] = system: Mus musculus; assay: Protection against kidney ischemia-reperfusion injury in C57BL/6 mouse model assessed as decrease in cytoplasmic vacuoles in kidney at 10 mg/kg, ip administered twice 1 hr prior to ischemia onset measured after 24 hrs post-ischemia by H and E staining based analysis; assay type: functional, organism-based; details: time 25.0 hrs
[37] = system: Mus musculus; assay: Protection against kidney ischemia-reperfusion injury in C57BL/6 mouse model assessed as decrease in KIM-1 level in kidney at 10 mg/kg, ip administered twice 1 hr prior to ischemia onset measured after 24 hrs post-ischemia by IHC analysis; assay type: functional, organism-based; details: time 25.0 hrs
[38] = system: Mus musculus; assay: (§1) Protection against APAP-induced acute liver injury in overnight fasted C57BL/6 mouse model assessed as normal pathology of liver at 10 mg/kg, ip administered 1 hr prior to APAP treatment measured after 12 hrs post-APAP treatment under continuous fasting condition by H and E staining based analysis; assay type: functional, organism-based; details: time 13.0 hrs
[39] = system: Mus musculus; assay: Protection against APAP-induced acute liver injury in overnight fasted C57BL/6 mouse model assessed as reversal of native liver architecture at 10 mg/kg, ip administered 1 hr prior to APAP treatment measured after 12 hrs post-APAP treatment under continuous fasting condition by H and E staining based analysis; assay type: functional, organism-based; details: time 13.0 hrs
[40] = system: Mus musculus; assay: as §1, with “reduction in necrotic areas” for “normal pathology”; assay type: functional, organism-based; details: time 13.0 hrs
[41] = Antioxidant activity assessed as DPPH radical scavenging activity at 10 uM incubated for 30 mins by absorbance based assay; assay type: functional
[42] = system: HT-1080; assay: Inhibition of RSL3-induced ferroptosis in human HT-1080 cells assessed as cell viability at 0.5 uM incubated for 24 hrs by CCK8 assay; assay type: functional, cell-based

In the case of `COc1ccc(/C=N/NC(=O)c2cccc(O)c2N)cc1`, the Activity [1] is reported as “Active”, the Activity [2] is reported as “Active” and the Activity [3] is reported as “Active”. The EC50 [4] was 40.5 nM, the inhibition [5] was “Active” and the inhibition [6] was “Active”. For the same compound, the inhibition [7] was “Active”, the inhibition [8] was “Active” and the inhibition [9] was “Active”. The inhibition [10] was “Active”, the inhibition [11] was “Active” and the inhibition [12] was “Active”. The inhibition [13] was “Active”, the inhibition [14] was “Active” and the inhibition [15] was “Active”. The inhibition [16] was “Active”, the inhibition [17] was “Active” and the inhibition [18] was “Active”. For the same compound, the inhibition [19] was “Active”, the inhibition [20] was “Active” and the inhibition [21] was “Active”. For the same compound, the inhibition [22] was “Active”, the Activity [23] was “inactive” and the Activity [24] was “inactive”. For the same compound, the Activity [25] was “inactive”, the Activity [26] was “inactive” and the Activity [27] was “inactive”. The Activity [28] was “inactive”, the Activity [29] was “inactive” and the Activity [30] was “inactive”. For the same compound, the Activity [31] was “Active”, the Activity [32] was “Active” and the Activity [33] was “Active”. For the same compound, the Activity [34] was “Active”, the Activity [35] was “Active” and the Activity [36] was “Active”. For the same compound, the Activity [37] was “Active”, the Activity [38] was “Active” and the Activity [39] was “Active”. For the same compound, the Activity [40] was “Active”.
Compound `Nc1c(O)cccc1C(=O)N/N=C/c1ccc([N+](=O)[O-])cc1` has an EC50 [4] of 649 nM.
In the case of `CCCOC(=O)c1cccc(O)c1N`, the EC50 [4] is reported as 302 nM, the Activity [41] is reported as “Active” and the inhibition [42] is reported as “Active”.
`Nc1c(O)cccc1C(=O)N/N=C/c1ccc(C(=O)O)cc1` gave an EC50 [4] of over 1000 nM.
`Nc1c(O)cccc1C(=O)N/N=C/c1ccc[nH]1` showed an EC50 [4] of 343 nM.
With `CCOC(=O)c1cccc(O)c1N` the inhibition [4] was “Dose-Dependent Effect” and the EC50 [4] was 127 nM.
For `Cn1c(-c2cccc(O)c2N)nc2ccccc21`, the EC50 [4] was 237 nM.
In the case of `Nc1c(O)cccc1-c1nnc(SCc2ccc3ccccc3c2)o1`, the EC50 [4] is reported as 603 nM.
In the case of `Cc1cc2nc(-c3cccc(O)c3N)[nH]c2cc1C`, the Activity [1] is reported as “Active”, the Activity [2] is reported as “Active” and the Activity [3] is reported as “Active”. For the same compound, the EC50 [4] was 181 nM, the inhibition [5] was “Active” and the inhibition [6] was “Active”. For the same compound, the inhibition [7] was “Active”, the inhibition [8] was “Active” and the inhibition [9] was “Active”. The inhibition [10] was “Active”, the inhibition [11] was “Active” and the inhibition [12] was “Active”. The inhibition [13] was “Active”, the inhibition [14] was “Active” and the inhibition [15] was “Active”. The inhibition [16] was “Active”, the inhibition [17] was “Active” and the inhibition [18] was “Active”. The inhibition [19] was “Active”, the inhibition [20] was “Active” and the inhibition [21] was “Active”. The inhibition [22] was “Active”, the Activity [23] was “inactive” and the Activity [24] was “inactive”. The Activity [25] was “inactive”, the Activity [26] was “inactive” and the Activity [27] was “inactive”. For the same compound, the Activity [28] was “inactive”, the Activity [29] was “inactive” and the Activity [30] was “inactive”. The Activity [31] was “Active”, the Activity [32] was “Active” and the Activity [33] was “Active”. For the same compound, the Activity [34] was “Active”, the Activity [35] was “Active” and the Activity [36] was “Active”. The Activity [37] was “Active”, the Activity [38] was “Active” and the Activity [39] was “Active”. The Activity [40] was “Active”.
In the case of `Nc1c(O)cccc1-c1nnc(SCc2ccc(F)cc2)o1`, the EC50 [4] is reported as 348 nM.
For `COC(=O)c1cccc(O)c1N`, the inhibition [4] was “Dose-Dependent Effect” and the EC50 [4] was 526 nM.
`NNC(=O)c1cccc(O)c1N` gave an EC50 [4] of over 1000 nM.
Work on `N#Cc1cccc(/C=N/NC(=O)c2cccc(O)c2N)c1` yielded an EC50 [4] of 727 nM.
`Nc1c(O)cccc1C(=O)N/N=C/c1ccccc1` gave an EC50 [4] of 274 nM.
